Test results taken from the supplement of paper PMC10331698.
± gives the standard deviation of the averaged measurements.

Key:
Experiment in all cases: level (log10 ratio to DMSO vehicle control); higher = higher biomarker level / cell amount than vehicle control
Conditions in all cases: in DMSO
[1] = compound: FC(F)(F)C(F)(F)C(F)(F)C(F)(F)C(F)(F)C(F)(F)C(F)(F)CCI [1-Iodo-1H,1H,2H,2H-perfluorononane]
Protocol: (§1)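 BioMAP Diversity Plus panel of 12 human primary cell co-culture systems (3C, 4H, LPS, SAg, BT, BF4T, BE3C, CASM3C, HDF3CGF, KF3CT, MyoF, Mphg). Compounds were added 1 h before stimulation and left for 24 h (MyoF 48 h; BT 72 h for soluble read-outs or 6 d for IgG). Biomarkers were read by ELISA, cytotoxicity by SRB, PBMC viability and proliferation by Alamar Blue. Each well value was divided by the mean of 8 DMSO control wells on the same plate and log10 transformed; duplicate blinded samples were tested at 4 concentrations.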

Hexafluoroglutaric acid = compound: O=C(O)C(F)(F)C(F)(F)C(F)(F)C(=O)O [Hexafluoroglutaric acid]
Protocol: as §1

Perfluorohexanoic acid = compound: O=C(O)C(F)(F)C(F)(F)C(F)(F)C(F)(F)C(F)(F)F [Perfluorohexanoic acid]
Protocol: as §1

[2] = compound: O=P(O)(O)CCC(F)(F)C(F)(F)C(F)(F)C(F)(F)C(F)(F)C(F)(F)C(F)(F)C(F)(F)F [((Perfluorooctyl)ethyl)phosphonic acid]
Protocol: as §1

[3] = compound: O=S(=O)(O)C(F)(F)C(F)(F)C(F)(F)C(F)(F)C(F)(F)C(F)(F)C(F)(F)C(F)(F)F [Perfluorooctanesulfonic acid]
Protocol: as §1

[4] = compound: O=S(=O)(O)C(F)(F)C(F)(F)C(F)(F)C(F)(F)C(F)(F)C(F)(F)C(F)(F)C(F)(F)F [Potassium perfluorooctanesulfonate]
Protocol: as §1

[5] = compound: O=S(=O)(O)C(F)(F)C(F)(F)C(F)(F)C(F)(F)F [Perfluorobutanesulfonic acid]
Protocol: as §1

Row | Test System | level (log10) ([1]; 6700 nM) | level (log10) ([1]; 20000 nM) | level (log10) (Hexafluoroglutaric acid; 6700 nM) | level (log10) (Hexafluoroglutaric acid; 20000 nM) | level (log10) (Hexafluoroglutaric acid; 60000 nM) | level (log10) (Perfluorohexanoic acid; 6700 nM) | level (log10) (Perfluorohexanoic acid; 20000 nM) | level (log10) (Perfluorohexanoic acid; 60000 nM) | level (log10) ([2]; 6700 nM) | level (log10) ([2]; 20000 nM) | level (log10) ([2]; 60000 nM) | level (log10) ([3]; 6700 nM) | level (log10) ([3]; 20000 nM) | level (log10) ([3]; 60000 nM) | level (log10) ([4]; 6700 nM) | level (log10) ([4]; 20000 nM) | level (log10) ([4]; 60000 nM) | level (log10) ([5]; 6700 nM) | level (log10) ([5]; 20000 nM) | level (log10) ([5]; 60000 nM)
1 | BE3C:MMP-1 | 0.011 ± 0.0071 | 0.059 ± 0.031 | -0.011 ± 0.0099 | -0.023 ± 0.016 | 0.007 ± 0.058 | -0.0075 ± 0.0064 | 0 ± 0.011 | 0.0275 ± 0.012 | 0.0705 ± 0.011 | 0.111 ± 0.018 | 0.125 ± 0.061 | 0.149 ± 0.067 | 0.155 ± 0.012 | -0.0685 ± 0.26 | 0.182 ± 0.038 | 0.157 ± 0.021 | 0.198 ± 0.012 | 0.0055 ± 0.028 | -0.011 ± 0.0057 | 0.019 ± 0.013
2 | BE3C:MMP-9 | -0.0045 ± 0.013 | -0.0045 ± 0.026 | -0.0035 ± 0.023 | -0.0025 ± 0.032 | 0.0145 ± 0.042 | -0.0155 ± 0.018 | -0.005 ± 0.0071 | 0.0145 ± 0.013 | -0.0155 ± 0.026 | -0.006 ± 0.044 | 0.014 ± 0.016 | -0.0185 ± 0.018 | -0.117 ± 0.0035 | -0.215 ± 0.086 | -0.0035 ± 0.012 | -0.13 ± 0.013 | -0.126 ± 0.024 | -0.0125 ± 0.016 | -0.0205 ± 0.0035 | -0.0315 ± 0.0092
3 | BE3C:PAI-I | 0.016 ± 0.0071 | -0.01 ± 0.0099 | -0.0205 ± 0.016 | -0.014 ± 0.027 | 0.002 ± 0.03 | -0.019 ± 0.018 | -0.029 ± 0.011 | 0.0065 ± 0.022 | 0.015 ± 0.0014 | -0.0115 ± 0.011 | -0.032 ± 0.0042 | -0.006 ± 0.0014 | -0.195 ± 0.0028 | -0.301 ± 0.0035 | -0.0115 ± 0.012 | -0.255 ± 0.03 | -0.253 ± 0.037 | -0.0015 ± 0.0035 | -0.006 ± 0.013 | 0.008 ± 0.013
4 | BE3C:SRB | -0.0035 ± 0.0021 | 0.0005 ± 0.00071 | 0.0035 ± 0.0035 | -0.005 | 0.0125 ± 0.012 | -0.001 | -0.006 ± 0.0014 | 0.009 ± 0.018 | -0.004 | -0.011 ± 0.0085 | 0.0015 ± 0.015 | -0.0095 ± 0.0064 | -0.2205 ± 0.00071 | -0.371 ± 0.016 | -0.0075 ± 0.0021 | -0.245 ± 0.034 | -0.306 ± 0.033 | 0.001 | -0.004 ± 0.0028 | -0.003 ± 0.0014
5 | BE3C:tPA | 0.004 ± 0.035 | 0.011 ± 0.035 | -0.008 ± 0.0014 | -0.0465 ± 0.005 | -0.0085 ± 0.022 | -0.032 ± 0.054 | -0.0405 ± 0.016 | -0.046 ± 0.018 | 0.123 ± 0.005 | 0.191 ± 0.0014 | 0.202 ± 0.032 | 0.119 ± 0.013 | -0.09 ± 0.0099 | -0.253 ± 0.025 | 0.115 ± 0.0035 | -0.101 ± 0.027 | -0.165 ± 0.03 | 0.0155 ± 0.022 | -0.0135 ± 0.0078 | 0 ± 0.025
6 | BE3C:uPA | 0.003 ± 0.033 | -0.0125 ± 0.015 | -0.01 ± 0.0085 | -0.017 ± 0.0042 | -0.0075 ± 0.011 | -0.03 ± 0.013 | -0.01 ± 0.018 | 0.0025 ± 0.016 | 0.014 ± 0.0014 | 0.022 ± 0.0014 | 0.023 ± 0.0014 | -0.003 ± 0.0099 | -0.031 | -0.122 ± 0.013 | 0.0125 ± 0.0092 | -0.028 ± 0.0099 | -0.036 ± 0.016 | -0.0035 ± 0.0021 | -0.007 ± 0.0042 | -0.005 ± 0.0099
7 | CASM3C:CCL2/MCP-1 | 0.003 ± 0.0099 | 0.02 ± 0.018 | -0.0115 ± 0.033 | -0.024 ± 0.025 | 0.0205 ± 0.039 | -0.014 ± 0.0042 | 0.0025 ± 0.021 | 0.008 ± 0.027 | -0.007 ± 0.0071 | -0.0085 ± 0.013 | 0.012 ± 0.058 | -0.0025 ± 0.015 | -0.0065 ± 0.0064 | 0.019 ± 0.023 | 0.001 ± 0.024 | 0.01 ± 0.0057 | 0.0405 ± 0.021 | -0.0085 ± 0.0092 | -0.0125 ± 0.035 | -0.0045 ± 0.021
